# Results published in ChEMBL document CHEMBL1148828, “Deoxycholic acid-derived tetraoxane antimalarials and antiproliferatives(1)” (J Med Chem, 2007).
# Active and inactive are the calls of the source. The calls are words filed in the database; no cut-off is given here.
# How the values were obtained:
# PC-3 = experiment: Antiproliferative activity against human PC3 cells after 48 hrs; type: functional; settings: PC-3, 48 h
# DU-145 = experiment: Antiproliferative activity against human DU145 cells after 48 hrs; type: functional; settings: DU-145, 48 h
# HOP-92 = experiment: Antiproliferative activity against human HOP92 cells after 48 hrs; type: functional
# CCRF-CEM = experiment: Antiproliferative activity against human CCRF-CEM cells after 48 hrs; type: functional
# HL-60 = experiment: Antiproliferative activity against human HL60 cells after 48 hrs; type: functional
# 786-0 = experiment: Antiproliferative activity against human 786-0 cells after 48 hrs; type: functional
# UO-31 = experiment: Antiproliferative activity against human UO31 cells after 48 hrs; type: functional
# NCI = experiment: Growth inhibition of human NCI DTP 60 cells; type: functional
# LOX IMVI = experiment: Antiproliferative activity against human LOX IMVI cells after 48 hrs; type: functional
# IGROV-1 = experiment: Antiproliferative activity against human IGROV1 cells after 48 hrs; type: functional; settings: IGROV-1, 48 h
# Plasmodium falciparum [1] = experiment: Antimalarial activity against Plasmodium falciparum D6; type: functional, organism-based
# A549 = experiment: Antiproliferative activity against human A549 cells after 48 hrs; type: functional; settings: A549, 48 h
# Plasmodium falciparum [2] = experiment: Antimalarial activity against Plasmodium falciparum TM91C235; type: functional, organism-based
# Plasmodium falciparum [3] = experiment: Antimalarial activity against Plasmodium falciparum W2; type: functional, organism-based
# Plasmodium berghei [4] = experiment: Antimalarial activity as survivors after 31 days in Plasmodium berghei KBG173 infected CD1 mice (Mus musculus) at 20 mg/kg/day; type: functional, organism-based; settings: KBG 173
# [5] = Metabolic stability in mouse liver microsomes; type: ADME, Microsome; settings: microsomes
# Liver microsomes = experiment: Metabolic stability in human liver microsomes; type: ADME, Microsome; settings: microsomes
# Mus musculus [6] = experiment: Survival of Plasmodium berghei KBG 173 infected CD1 mice (Mus musculus) at 80 mg/kg/day; type: ADME, organism-based; settings: in vivo
# SN12C = experiment: Antiproliferative activity against human SN12C cells after 48 hrs; type: functional
# ACHN = experiment: Antiproliferative activity against human ACHN cells after 48 hrs; type: functional
# Mus musculus [7] = experiment: Survival of Plasmodium berghei KBG 173 infected CD1 mice (Mus musculus) at 320 mg/kg/day; type: ADME, organism-based; settings: in vivo
# MDA-MB-435 = experiment: Antiproliferative activity against human MDA-MB-435 cells after 48 hrs; type: functional
# NCI-H23 = experiment: Antiproliferative activity against human NCI-H23 cells after 48 hrs; type: functional; settings: NCI-H23, 48 h
# Plasmodium berghei [8] = experiment: Antimalarial activity as survivors after 31 days in Plasmodium berghei KBG173 infected CD1 mice (Mus musculus) at 80 mg/kg/day; type: functional, organism-based; settings: KBG 173
# [9] = read-out: LC50 (the source's name)
structure (smiles),measurement,setting,value
CC1CCC2(CC1)OOC1(CC[C@@]3(C)[C@H](CC[C@@H]4[C@@H]3C[C@H](O)[C@]3(C)[C@@H]([C@H](C)CCC(=O)NCCN(C)C)CC[C@@H]43)C1)OO2 (stereo in doubt; 17a),GI50,PC-3,367 nM
same,TGI,PC-3,1620 nM
same,CC50,PC-3; [9],4450 nM
same,GI50,DU-145,641 nM
same,LC50 (concentration killing 50% of cells),DU-145,4490 nM
same,TGI,DU-145,1910 nM
same,GI50,HOP-92,171 nM
same,LC50 (concentration killing 50% of cells),HOP-92,794 nM
same,TGI,HOP-92,368 nM
same,GI50,CCRF-CEM,186 nM
same,LC50 (concentration killing 50% of cells),CCRF-CEM,792 nM
same,TGI,CCRF-CEM,384 nM
same,GI50,HL-60,264 nM
same,TGI,HL-60,477 nM
same,CC50,HL-60; [9],863 nM
same,GI50,786-0,335 nM
same,TGI,786-0,1050 nM
same,CC50,786-0; [9],3650 nM
same,GI50,UO-31,165 nM
same,LC50,UO-31,613 nM
same,TGI,UO-31,318 nM
same,GI50,NCI,130 nM
same,GI50,LOX IMVI,180 nM
same,LC50 (concentration killing 50% of cells),LOX IMVI,689 nM
same,TGI,LOX IMVI,352 nM
same,GI50,IGROV-1,160 nM
same,LC50 (concentration killing 50% of cells),IGROV-1,712 nM
same,TGI,IGROV-1,338 nM
CC(=O)O[C@H]1C[C@H]2[C@@H]([C@H](OC(C)=O)C[C@@H]3CC4(CC[C@@]32C)OOC2(CCC(C)CC2)OO4)[C@@H]2CC[C@H]([C@H](C)CCC(=O)Nc3ccccc3)[C@@]12C (stereo in doubt; 21),GI50,"HOP-92; Homo sapiens, HOP-92, 48 h",266 nM
same,LC50 (concentration killing 50% of cells),"HOP-92; Homo sapiens, HOP-92, 48 h",8840 nM
same,TGI,"HOP-92; Homo sapiens, HOP-92, 48 h",766 nM
same,IC50,Plasmodium falciparum [1],19.8 nM
same,IC90,Plasmodium falciparum [1],29.2 nM
same,GI50,"UO-31; Homo sapiens, UO-31, 48 h",222 nM
same,LC50,"UO-31; Homo sapiens, UO-31, 48 h",> 10000 nM
same,TGI,"UO-31; Homo sapiens, UO-31, 48 h",487 nM
same,GI50,A549,255 nM
same,TGI,A549,664 nM
same,IC50,Plasmodium falciparum [2],27.2 nM
same,IC90,Plasmodium falciparum [2],69.7 nM
same,GI50,"NCI; Homo sapiens, NCI",180 nM
same,IC50,Plasmodium falciparum [3],23.1 nM
same,IC90,Plasmodium falciparum [3],54.6 nM
same,GI50,LOX IMVI,181 nM
same,LC50 (concentration killing 50% of cells),LOX IMVI,758 nM
same,TGI,LOX IMVI,370 nM
CC(=O)O[C@H]1C[C@H]2[C@@H]([C@H](OC(C)=O)C[C@@H]3CC4(CC[C@@]32C)OOC2(CCC(C)CC2)OO4)[C@@H]2CC[C@H]([C@H](C)CCC(=O)NCCN(C)C)[C@@]12C (stereo in doubt; 22),Activity,Plasmodium berghei [4],inactive
CC(=O)O[C@H]1C[C@H]2[C@@H]([C@H](OC(C)=O)C[C@@H]3CC4(CC[C@@]32C)OOC2(CCC(C)CC2)OO4)[C@@H]2CC[C@H]([C@H](C)CCC(=O)NCCN(C)C)[C@@]12C (stereo in doubt; 23) [listing 1 of 2 here],t1/2,[5],> 2 h
same,t1/2,Liver microsomes,2 h
same,Survival,Mus musculus [6],11 days
same,GI50,SN12C,606 nM
same,LC50 (concentration killing 50% of cells),SN12C,2720 nM
same,TGI,SN12C,1280 nM
same,GI50,"HOP-92; Homo sapiens, HOP-92, 48 h",70 nM
same,LC50 (concentration killing 50% of cells),"HOP-92; Homo sapiens, HOP-92, 48 h",2860 nM
same,TGI,"HOP-92; Homo sapiens, HOP-92, 48 h",695 nM
same,IC50,Plasmodium falciparum [1],43.8 nM
same,IC90,Plasmodium falciparum [1],71.2 nM
same,GI50,ACHN,592 nM
same,LC50 (concentration killing 50% of cells),ACHN,2640 nM
same,TGI,ACHN,1250 nM
same,GI50,CCRF-CEM,67 nM
same,TGI,CCRF-CEM,151 nM
same,LC50 (concentration killing 50% of cells),"CCRF-CEM; Homo sapiens, CCRF-CEM, 48 h",340 nM
same,Survival,Mus musculus [7],17 days
same,GI50,MDA-MB-435,650 nM
same,TGI,MDA-MB-435,1340 nM
same,CC50,MDA-MB-435; [9],2780 nM
same,IC50,Plasmodium falciparum [2],39.2 nM
same,IC90,Plasmodium falciparum [2],102 nM
same,GI50,NCI,57 nM
same,IC50,Plasmodium falciparum [3],43.5 nM
same,IC90,Plasmodium falciparum [3],94 nM
same,GI50,LOX IMVI,57 nM
same,LC50 (concentration killing 50% of cells),"LOX IMVI; Homo sapiens, LOX IMVI, 48 h",295 nM
same,TGI,"LOX IMVI; Homo sapiens, LOX IMVI, 48 h",130 nM
same,GI50,NCI-H23,318 nM
same,LC50 (concentration killing 50% of cells),NCI-H23,3110 nM
same,TGI,NCI-H23,1690 nM
CC(=O)O[C@H]1C[C@H]2[C@@H]([C@H](OC(C)=O)C[C@@H]3CC4(CC[C@@]32C)OOC2(CCC(C)CC2)OO4)[C@@H]2CC[C@H]([C@H](C)CCC(=O)NCCN(C)C)[C@@]12C (stereo in doubt; 23) [listing 2 of 2 here],Activity,Plasmodium berghei [8],inactive
